Assay results from patent US9073863B2, “Cyanoquinoline compounds having activity in correcting mutant-CFTR processing and increasing ion transport and uses thereof” (The Regents of the University of California, priority 2011, dated 2015).
One block for each compound: values may come before it.

Columns and labels:
Format in all cases: cell-based
ΔF508-CFTR [1] = target: T1, ΔF508-CFTR (Homo sapiens, UniProt P13569, DEL508-508); assay: Short-circuit current (apical membrane chloride current) corrector assay in ΔF508-CFTR expressing FRT cells; settings: 10 μM, 18-24 h incubation
T1 construct: expressed in transfected cells; host or cells: Fischer rat thyroid (FRT) epithelial cells, stably transfected
Description: Short-circuit current measurements. ΔF508-CFTR-expressing FRT cells were cultured on Snapwell inserts for 7-9 days. For corrector testing, test compounds were incubated with FRT cells for 18-24 h at 37° C. prior to measurements. For potentiator testing, the FRT cells were incubated for 18-24 h at 27° C. prior to measurements. The basolateral solution contained 130 mM NaCl, 2.7 mM KCl, 1.5 mM KH2PO4, 1 mM CaCl2, 0.5 mM MgCl2, 10 mM glucose, and 10 mM Na-HEPES (pH 7.3). In the apical bathing solution, 65 mM NaCl was replaced by Na gluconate, and CaCl2 was increased to 2 mM. Solutions were bubbled with air and maintained at 37° C. The basolateral membrane was permeabilized with 250 μg/ml amphotericin B. Hemichambers were connected to a DVC-1000 voltage clamp (World Precision Instruments Inc.) via Ag/AgCl electrodes and 1 M KCl agar bridges for recording of short-circuit current.
Short-circuit current was measured as a definitive electrophysiological assay to verify Compound 22 corrector action. Apical membrane chloride current was measured in ΔF508-CFTR expressing FRT cells after basolateral membrane permeabilization and in the presence of a transepithelial chloride gradient (apical, 65 mM; basolateral, 130 mM). In FIG. 3C, incubation with Corr-4a (5 μM) is shown as reference (right). Forskolin (20 μM), genistein (50 μM) and CFTRinh-172 (10 μM) were added where indicated. […] FIG. 3D summarizes Compound 22 concentration dependence data from short-circuit current studies. […]
Short-circuit current was measured in an electrophysiology assay to verify corrector activity. Apical membrane chloride current was measured in ΔF508-CFTR expressing FRT cells after basolateral membrane permeabilization and in the presence of a transepithelial chloride gradient. […] To assay potentiator activity apical membrane chloride current was measured after low-temperature rescue, in response to CP-3 addition. CP-3 concentration-dependent increases in apical membrane current were measured in the presence of 5 μM forskolin. […]

ΔF508-CFTR [2] = target: T1, ΔF508-CFTR; assay: Corrector assay, YFP fluorescence plate reader iodide influx in ΔF508-CFTR expressing FRT cells
Description: (§1) Screening procedures. Screening of compounds for activity was carried out using a Beckman Coulter platform equipped with FLUOstar fluorescence plate readers (Optima; BMG Labtech) with dual syringe pumps and 500±10 nm excitation and 535±15 nm emission filters (Chroma Corp.). For the corrector assay, FRT cells were grown at 37° C./5% CO2 for 18-24 h and then incubated for 18-24 h with 100 μL of medium containing test compounds (25 μM final concentration). At the time of the assay, cells were washed with PBS and then incubated for 10 min with PBS containing forskolin (20 μM) and genistein (50 μM). For the potentiator assay, FRT cells were grown at 37° C./5% CO2 for 18-24 h and then for 18-24 h at 27° C. At the time of the assay, cells were washed with PBS and then incubated for 10 min with PBS (50 μL) containing forskolin (20 μM) and test compound (0-25 μM final concentration). For both the corrector and potentiator assays, each well was assayed individually for I^− influx by recording fluorescence continuously (200 ms per point) for 2 s (baseline) and then for 12 s after rapid addition of 165 μL PBS in which 137 mM Cl^− was replaced by I^−. Initial I^− influx rate was computed by fitting the final 11.5 seconds of the data to an exponential for extrapolation of initial slope, which was normalized for background-subtracted initial fluorescence. All compound plates contained negative controls and positive controls (10 μM Corr-4a for corrector assay; 50 μM genistein for potentiator assay).
(§2) Screening of about 110,000 small molecules was done to identify new ΔF508-CFTR corrector scaffolds having high correction efficiency and/or having independent potentiator activity. […] FRT cells co-expressing human ΔF508-CFTR and a halide-sensing YFP were incubated with test compounds at 37° C. (corrector assay) or 27° C. (potentiator assay). ΔF508-CFTR function was assayed in a plate reader from YFP fluorescence quenching in response to iodide addition in the presence of forskolin (20 μM) plus genistein (50 μM) for corrector assay, or forskolin (20 μM) alone for potentiator assay. As shown in FIG. 1A (left), primary screening for corrector activity was done using a cell-based fluorescence assay of iodide influx in which FRT cells expressing ΔF508-CFTR and an iodide-sensitive YFP were incubated with test compounds at 10 μM for 18-24 h prior to assay. Iodide influx was measured by addition of extracellular iodide in the presence of a potentiator (50 μM genistein) and cAMP agonist (20 μM forskolin). Compound efficacy and potency (from concentration-dependence studies) in the corrector assay were compared to reference bithiazole Corr-4a (10 μM) and to low-temperature rescued cells. Active compounds were counter-screened for potentiator activity (FIG. 1A, right) in which iodide influx was measured in the ΔF508-CFTR expressing FRT cells after low-temperature rescue and in the presence of 20 μM forskolin.
(§3) Screening procedures. Plate reader activity assay was carried out using a Beckman Coulter platform containing a robotic arm, CO2 incubator containing microplate carousel, plate-washer, liquid handling work station, bar code reader, de-lidding station, plate sealer, and FLUOstar fluorescence plate readers (Optima; BMG LABTECH Gmbh), equipped with dual syringe pumps and 500±10 nm excitation and 535±15 nm emission filters (Chroma Corp.). For the corrector assay, ΔF508-CFTR-expressing FRT cells were grown at 37° C. (90% humidity; 5% CO2) for 18-24 h and then incubated for 18-24 h with 100 μL of medium containing test compounds (0-25 μM final concentration). At the time of the assay, cells were washed with PBS and then incubated for 10 min with PBS containing forskolin (20 μM) and genistein (50 μM). For the potentiator assay, FRT cells were grown at 37° C. (90% humidity; 5% CO2) for 18-24 h and then for 18-24 h at 27° C. […]

ΔF508-CFTR [3] = target: T1, ΔF508-CFTR; assay: CFTR immunoblot of ΔF508-CFTR expressing FRT cells; settings: 24 h at 37° C.
Description: CFTR Immunoblot. DF508-CFTR expressing FRT cells grown on 6-well plates were treated with Corr-4a ([…]), Compound 22 […] or negative control at 37° C. for 24 h. After treatment, cells were washed with PBS and lysed in 20 mM Hepes (pH 7), 150 mM NaCl, 1 mM EGTA and 1% Igepal containing Complete Protease Inhibitor Cocktail (Roche). After pre-clearing, lysates were subjected to SDS-PAGE and analyzed by immunoblot. Proteins were immunodetected using a mouse monoclonal anti-CFTR antibody (M3A7, Millipore) followed by HRP-conjugated anti-mouse IgG, and visualized by chemiluminescence (ECL Plus, Amersham).
The action of Compound 22 as corrector of defective ΔF508-CFTR cellular processing was verified by CFTR immunoblot analysis (FIG. 4C). Wildtype CFTR was detected as a strong band at 170 kDa (band C), corresponding to complex glycosylated CFTR. […] Band B, which corresponds to core-glycosylated ΔF508-CFTR, was also seen.

ΔF508-CFTR [4] = target: T1, ΔF508-CFTR; assay: Potentiator assay, YFP fluorescence plate reader iodide influx in low-temperature rescued ΔF508-CFTR expressing FRT cells; settings: forskolin 20 μM + test compound
Description: as §1, §2, §3

[5] = Table IX, additional experiments, 18-24 h at 27° C.
[6] = Table IX, additional experiments, 18-24 h with compound at 37° C., forskolin 20 μM + genistein 50 μM
[7] = Table VIII, FRT cells 18-24 h at 27° C., I− influx
[8] = Table VIII, FRT cells, 18-24 h with compound at 37° C., forskolin 20 μM + genistein 50 μM, I− influx

T1 sequence (P13569 with tags, fused parts or gaps DEL508-508): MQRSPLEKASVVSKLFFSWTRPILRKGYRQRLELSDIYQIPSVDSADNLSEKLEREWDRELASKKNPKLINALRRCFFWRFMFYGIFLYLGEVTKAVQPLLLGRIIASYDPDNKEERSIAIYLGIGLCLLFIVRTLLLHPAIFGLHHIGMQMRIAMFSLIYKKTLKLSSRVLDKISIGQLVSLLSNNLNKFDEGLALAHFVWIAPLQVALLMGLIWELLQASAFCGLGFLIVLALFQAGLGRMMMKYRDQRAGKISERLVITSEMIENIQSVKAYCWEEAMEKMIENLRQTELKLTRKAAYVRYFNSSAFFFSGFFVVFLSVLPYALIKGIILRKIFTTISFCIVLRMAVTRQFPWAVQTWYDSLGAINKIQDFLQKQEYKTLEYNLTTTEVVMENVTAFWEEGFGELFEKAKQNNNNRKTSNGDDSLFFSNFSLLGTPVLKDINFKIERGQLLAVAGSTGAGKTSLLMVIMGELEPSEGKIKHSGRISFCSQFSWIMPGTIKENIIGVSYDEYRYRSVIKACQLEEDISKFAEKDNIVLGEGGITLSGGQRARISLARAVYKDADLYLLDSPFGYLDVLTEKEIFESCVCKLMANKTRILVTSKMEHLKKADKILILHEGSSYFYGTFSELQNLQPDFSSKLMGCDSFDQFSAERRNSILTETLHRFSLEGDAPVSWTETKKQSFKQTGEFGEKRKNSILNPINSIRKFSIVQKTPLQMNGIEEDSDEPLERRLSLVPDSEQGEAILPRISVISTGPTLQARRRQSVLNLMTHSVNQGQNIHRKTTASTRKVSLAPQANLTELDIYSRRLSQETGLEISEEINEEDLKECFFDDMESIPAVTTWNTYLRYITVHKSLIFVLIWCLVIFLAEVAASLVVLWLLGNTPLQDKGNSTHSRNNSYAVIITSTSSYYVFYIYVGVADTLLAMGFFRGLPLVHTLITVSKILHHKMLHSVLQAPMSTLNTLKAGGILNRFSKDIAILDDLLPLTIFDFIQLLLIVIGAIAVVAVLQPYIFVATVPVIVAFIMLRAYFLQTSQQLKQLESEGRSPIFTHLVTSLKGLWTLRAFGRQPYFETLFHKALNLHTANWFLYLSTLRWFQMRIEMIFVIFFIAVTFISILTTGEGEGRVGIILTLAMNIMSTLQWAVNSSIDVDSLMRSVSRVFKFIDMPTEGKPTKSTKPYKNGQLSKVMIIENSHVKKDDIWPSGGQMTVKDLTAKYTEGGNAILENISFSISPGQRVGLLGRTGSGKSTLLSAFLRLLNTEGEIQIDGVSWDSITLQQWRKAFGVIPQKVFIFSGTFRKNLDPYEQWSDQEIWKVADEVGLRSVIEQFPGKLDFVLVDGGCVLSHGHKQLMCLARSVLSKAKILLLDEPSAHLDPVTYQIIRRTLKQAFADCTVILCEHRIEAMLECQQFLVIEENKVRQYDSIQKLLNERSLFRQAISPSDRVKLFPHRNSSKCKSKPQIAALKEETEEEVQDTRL

EC50 (ΔF508-CFTR [4]; [5]): 7.4 ± 0.3 µM | Potentiator Vmax (ΔF508-CFTR [4]; [5]): 102 µM/s | Corrector EC50 (ΔF508-CFTR [2]; [6]): inactive | Corrector Vmax (ΔF508-CFTR [2]; [6]): inactive
SMILES: Cc1cc(C)c2cc(C#N)c(N3CCN(C(=O)c4ccccn4)CC3)nc2c1 [drawing 173]

EC50 (ΔF508-CFTR [4]; [7]): 1.3 µM | Potentiator Vmax (ΔF508-CFTR [4]; [7]): 281 µM/s | Corrector Vmax (ΔF508-CFTR [2]; [8]): inactive
SMILES: COc1ccc(C(=O)N2CCN(c3nc4cc(C)cc(C)c4cc3C#N)CC2)cc1 [drawing 154]

EC50 (ΔF508-CFTR [4]; [7]): 5 µM | Potentiator Vmax (ΔF508-CFTR [4]; [7]): 231 µM/s | Corrector Vmax (ΔF508-CFTR [2]; [8]): 112 µM/s
SMILES: COc1ccc(C(=O)NCCCNc2nc3cc(C)cc(C)c3cc2C#N)cc1 [drawing 160]

The next lines start with the compound.

SMILES: COc1ccc(C(=O)NCCNc2nc3cc(C)cc(C)c3cc2C#N)cc1 [Compound CP3]
apical membrane current (corrector) (ΔF508-CFTR [1]): increase in apical membrane current | corrector and potentiator activities, in words (ΔF508-CFTR [2]; concentration-dependence in corrector and potentiator I− influx assays (FIG. 2, FIG. 7)): both corrector and potentiator activities

SMILES: COc1ccc(Cl)cc1Nc1nc(-c2sc(NC(=O)c3ccccc3)nc2C)cs1 [Corr-4a, reference compound]
complex glycosylated CFTR (band C) in immunoblot (ΔF508-CFTR [3]): band C was visualized | iodide influx after incubation at 27° C. (ΔF508-CFTR [2]; Compound 22 (20 µM) or Corr-4a (10 µM), 24 h, 27° C., vs low-temperature rescue control): substantially increased iodide influx | iodide influx after incubation at 37° C. (ΔF508-CFTR [2]; Compound 22 (20 µM) or Corr-4a (10 µM), 24 h, 37° C., with genistein): increased iodide influx
